According to the NIST ThermoML archive (doi:10.1021/je700546r):

Tests used:
[1] = molar heat capacity at constant pressure; settings: 100 kPa, Small (less than 1 g) adiabatic calorimetry
[2] = Molar enthalpy of transition or fusion; settings: Crystal 1; Adiabatic calorimetry

ON=C1CCCCC1 [cyclohexanone oxime]
[1]
Settings	molar heat capacity at constant pressure [J/K/mol]
5 K, Crystal 3	0.3674
10 K, Crystal 3	2.982
15 K, Crystal 3	7.554
20 K, Crystal 3	12.9
25 K, Crystal 3	18.36
30 K, Crystal 3	23.53
35 K, Crystal 3	28.21
40 K, Crystal 3	32.42
45 K, Crystal 3	36.26
50 K, Crystal 3	39.78
60 K, Crystal 3	45.91
70 K, Crystal 3	51.28
80 K, Crystal 3	56.24
90 K, Crystal 3	60.87
100 K, Crystal 3	65.47
110 K, Crystal 3	69.94
120 K, Crystal 3	74.33
130 K, Crystal 3	78.7
140 K, Crystal 3	83.1
150 K, Crystal 3	87.59
160 K, Crystal 3	92.16
170 K, Crystal 3	96.94
180 K, Crystal 3	102.1
190 K, Crystal 3	107.7
200 K, Crystal 3	113.9
210 K, Crystal 3	122.3
220 K, Crystal 3	132.6
230 K, Crystal 3	141.9
240 K, Crystal 3	150.7
250 K, Crystal 2	153.4
260 K, Crystal 2	163.4
270 K, Crystal 2	174.5
280 K, Crystal 2	184.4
290 K, Crystal 2	191.9
298.15 K, Crystal 2	196.2
300 K, Crystal 2	197.1
310 K, Crystal 1	192.8
320 K, Crystal 1	197.5
330 K, Crystal 1	203
340 K, Crystal 1	209
350 K, Crystal 1	215.2
360 K, Crystal 1	221.1
362.2 K, Crystal 1	222.4
362.2 K, Liquid	271.5
365 K, Liquid	273.1
370 K, Liquid	276

Settings	Molar enthalpy of transition or fusion [kcal/mol]
[2]	2.977
